Test results published in patent US12157882B2, “Lactobacillus plantarum strain ATG-K2, ATG-K6 or ATG-K8, and composition for preventing or treating vaginitis comprising same” (ATOGEN CO., LTD, priority 2018, dated 2024).

How the values were obtained:
[1] = tested on: Gardnerella vaginalis KCTC5096 (GV); assay: Disinfection power through coculture; type: cell-based; conditions: coculture 1:1, at 24 hr
Experimental: (§1) The anti-vaginitis effect of the lactic-acid bacteria of the present disclosure was tested for disinfection power on the vaginitis pathogen through coculture. In the anti-CA experiment, CA at a concentration of about 2.5×10^6 CFU/ml and each of lactic-acid bacteria at a concentration of about 2.5×10^6 CFU/ml were mixed at a ratio of 1:1, and coculture thereof was carried out in a culture medium of YM and MRS mixed at 1:1. In the anti-GV experiment, GV at a concentration of about 1.0×10^8 CFU/ml and each of lactic-acid bacteria at a concentration of about 1.0×10^8 CFU/ml were mixed at a ratio of 1:1 and then inoculated into a 10% horse-serum BHI broth. Each coculture experiment was conducted for 48 hr, and portions of the samples were collected initially and every 24 hr, and a viable cell count was taken through a serial dilution method and a plate-spreading method. In the anti-CA experiment, in order to measure CA alone, a YM plate medium containing ampicillin at a concentration of 100 μg/ml was used. In the anti-GV experiment, CFU was measured by distinguishing the colony forms between GV and lactic-acid bacteria using a 5% rabbit blood BHI plate medium.

[2] = tested on: Candida albicans KCTC7678 (CA); assay: Disinfection power through coculture; type: cell-based; conditions: for disinfection power on CA: coculture 1:1, at 24 hr; for CA in coculture: coculture 1:1, at 48 hr
Experimental: as §1

Row | Substance | disinfection power on GV [1] [%] | disinfection power on CA [2] [%] | CA in coculture [2]
1 | Lactobacillus plantarum ATG-K8 [Lb. plantarum ATG-K8] | 93.71 | 99.53 | completely disappeared
2 | Lactobacillus plantarum ATG-K6 [Lb. plantarum ATG-K6] | 92.50 | 99.49 | completely disappeared
3 | Lactobacillus plantarum ATG-K2 [Lb. plantarum ATG-K2] | 87.37 | 99.03 | completely disappeared
